Source: patent US7897582B2, “Oligonucleotide compositions and methods for the modulation of the expression of B7 protein” (Isis Pharmaceuticals, Inc., priority 2003, dated 2011)
Strand notation (5' to 3'): a small letter for the sugar, then the base; units joined by * are phosphorothioate-linked, units joined directly phosphodiester-linked; [ ] holds rarer units or linkages, { } end groups; capitals alone tell only the bases. e = 2'-O-(2-methoxyethyl) (MOE); [5mC] = 5-methylcytosine; d = 2'-deoxy (DNA)

Experiments:
[1] = test system: human B7-2; test: Cell surface expression of B7-2 in transfected COS-7 cells by flow cytometry; format: cell-based; design: % Control Protein: concentration or dose not given beside the values; details: for B7-2 expression relative to untreated cells / inhibitory activity on B7-2 cell surface expression: 200 nM; for B7-2 expression relative to untreated cells: protein expression assay, ISIS 10996 and 2′-O-methyl derivatives; for activity in the B7-2 protein expression assay: ISIS 10373 deletion derivatives, FIG. 4; for % Control Protein: hB7-2 protein, flow cytometry, Table 5; for inhibitory activity on B7-2 cell surface expression: FIG. 3
Procedure: A T-175 flask was seeded at 75% confluency with COS-7 cells (ATCC accession No. CRL 1651). The plasmid pcB7-1 was introduced into cells by standard calcium phosphate transfection. Following a 4 hour transfection, the cells were trypsinized and seeded in 12-well dishes at 80% confluency. The cells were allowed to adhere to the plastic for 1 hour and were then washed with phosphate-buffered saline (PBS). OptiMEM™ (GIBCO-BRL, Gaithersburg, Md.) medium was added along with 15 μg/mL of Lipofectin™ (GIBCO-BRL, Gaithersburg, Md.) and oligonucleotide at the indicated concentrations. After four additional hours, the cells were washed with phosphate buffered saline (PBS) and incubated with fresh oligonucleotide at the same concentration in DMEM (Dulbecco et al., Virol., 1959, 8, 396; Smith et al., Virol., 1960, 12, 185) with 10% fetal calf sera (FCS).
In order to monitor the effects of oligonucleotides on cell surface expression of B7-1, treated COS-7 cells were harvested by brief trypsinization 24-48 hours after oligonucleotide treatment. The cells were washed with PBS, then resuspended in 100 μL of staining buffer (PBS, 0.2% BSA, 0.1% azide) with 5 μL conjugated anti-B7-1-antibody (i.e., anti-hCD80-FITC, Ancell, Bayport, Minn.; FITC: fluorescein isothiocyanate). The cells were stained for 30 minutes at 4° C., washed with PBS, resuspended in 300 μL containing 0.5% paraformaldehyde. Cells were harvested and the fluorescence profiles were determined using a flow cytometer.
In an initial screen, the ability of hB7-2 oligonucleotides to inhibit B7-2 expression was evaluated by measuring the cell surface expression of B7-2 in transfected COS-7 cells by flow cytometry. The methods used were similar to those given in Example 2, with the exceptions that (1) COS-7 cells were transfected with the plasmids pbcB7-2 or BBG-58, a human ICAM-1 (CD54) expression vector (R&D Systems, Minneapolis, Minn.) introduced into cells by standard calcium phosphate transfection, (2) the oligonucleotides used were those described in Table 2, and (3) a conjugated anti-B7-2 antibody (i.e., anti-hCD86-FITC or anti-CD86-PE, PharMingen, San Diego, Calif.; PE: phycoerythrin) was used during flow cytometry.
B7 antisense oligonucleotides were tested for their effect on cell surface expression of both B7-1 and B7-2. Cell surface expression was measured as described in Example 1. Experiments were done for both human B7 and mouse B7.
The oligonucleotides were screened as described in Example 2 except that the concentration of oligonucleotide was varied as shown in Table 19.

[2] = test system: hB7-2 mRNA; test: Ribonuclease protection assay of hB7-2 mRNA in transfected COS-7 cells; format: cell-based, human; design: % Control RNA Expression: concentration or dose not given beside the values; details: hB7-2 mRNA; Table 5
Procedure: For ribonuclease protection assays, cells were harvested 18 hours after completion of oligonucleotide treatment using a Totally RNA™ kit (Ambion, Austin, Tex.). The probes for the assay were generated from plasmids pcB7-2 (linearized by digestion with Bgl II) and pTRI-b-actin (Ambion Inc., Austin, Tex.). In vitro transcription of the linearized plasmid from the SP6 promoter was performed in the presence of α-^32P-UTP (800 Ci/mmole) yielding an antisense RNA complementary to the 3′ end of B7-2 (position 1044-1391). The probe was gel-purified after treatment with DNase I to remove DNA template. Ribonuclease protection assays were carried out using an RPA II™ kit (Ambion) according to the manufacturer's directions. Total RNA (5 μg) was hybridized overnight, at 42° C., with 10^5 cpm of the B7-2 probe or a control beta-actin probe. The hybridization reaction was then treated, at 37° C. for 30 minutes, with 0.4 units of RNase A and 2 units of RNase T1. Protected RNA was precipitated, resuspended in 10 μL of gel loading buffer and electrophoresed on a 6% acrylamide gel with 50% w/v urea at 20 W. The gel was then exposed and the lanes quantitated using a PhosphorImager (Molecular Dynamics, Sunnyvale, Calif.) essentially according to the manufacturer's instructions.
The oligonucleotides were screened as described in Example 4 except that the concentration of oligonucleotide was varied as shown in Table 13. Mismatch control oligonucleotides were included.

[3] = test system: human B7.2 mRNA; test: Human B7.2 mRNA levels in THP-1 cells by quantitative real-time PCR (Example 27); format: cell-based; design: concentration or dose not given beside the values
Source text: In accordance with the present invention, an additional series of antisense compounds were designed to target different regions of the human B7.2 RNA, using published sequences (GenBank accession number U04343.1, incorporated herein as SEQ ID NO: 295, GenBank accession number BC040261.1, incorporated herein as SEQ ID NO: 296 and GenBank accession number NT—005543.12, a portion of which is incorporated herein as SEQ ID NO: 297). “Target site” indicates the first (5′-most) nucleotide number on the particular target sequence to which the compound binds. All compounds in Table 25 are chimeric oligonucleotides (“gapmers”) 20 nucleotides in length, composed of a central “gap” region consisting of ten 2′-deoxynucleotides, which is flanked on both sides (5′ and 3′ directions) by five-nucleotide “wings”. The wings are composed of 2′-methoxyethyl (2′-MOE)nucleotides. The internucleoside (backbone) linkages are phosphorothioate (P═S) throughout the oligonucleotide. All cytidine residues are 5-methylcytidines. The compounds were analyzed for their effect on human B7.2 mRNA levels in THP-1 cells by quantitative real-time PCR as described in other examples herein. Data are averages from three experiments. If present, “N.D.” indicates “no data”.

Substance	% Control RNA Expression [2] [%]	% Control Protein [1] [%]	% INHIB (inhibition of human B7.2 mRNA levels) [3] [%]	also measured
5′-GCG-AGC-TCC-CCG-TAC (antisense GCGAGCTCCCCGTAC; listed as DNA, chemistry not given here) [ISIS 10996, 15-mer derived from ISIS 10373, 0015-0029; 5′-UTR]	–	–	–	B7-2 expression relative to untreated cells [1]: about 50%; activity in the B7-2 protein expression assay [1]: as (or more) active
9133 (antisense dT*dT*dC*dC*dA*dG*dG*dT*dC*dA*dT*dG*dA*dG*dC*dC*dA*dT*dT*dA) [compound 9133]	46.0	70.2	–	–
9134 (antisense dC*dA*dT*dA*dA*dG*dG*dT*dG*dT*dG*dC*dT*dC*dT*dG*dA*dA*dG*dT*dG) [compound 9134]	94.5	88.8	–	–
9135 (antisense dT*dT*dA*dC*dT*dC*dA*dT*dG*dG*dT*dA*dA*dT*dG*dT*dC*dT*dT*dT) [compound 9135]	83.4	98.2	–	–
9136 (antisense dA*dT*dT*dA*dA*dA*dA*dA*dC*dA*dT*dG*dT*dA*dT*dC*dA*dC*dT*dT) [compound 9136]	103.1	97.1	–	–
9137 (antisense dG*dG*dA*dA*dC*dA*dC*dA*dG*dA*dA*dG*dC*dA*dA*dG*dG*dT*dG*dG*dT) [compound 9137]	78.1	80.5	–	–
9138 (antisense dC*dC*dG*dT*dA*dC*dC*dT*dC*dC*dT*dA*dA*dG*dG*dC*dT*dC*dC*dT) [compound 9138]	65.9	86.4	–	–
9139 (antisense dC*dC*dC*dA*dT*dA*dG*dT*dG*dC*dT*dG*dT*dC*dA*dC*dA*dA*dA*dT) [compound 9139]	32.6	47.9	–	–
10367 (antisense dG*dC*dA*dC*dA*dG*dC*dA*dG*dC*dA*dT*dT*dC*dC*dC*dA*dA*dG*dG) [compound 10367]	52.5	71.3	–	–
10368 (antisense dT*dT*dG*dC*dA*dA*dA*dT*dT*dG*dG*dC*dA*dT*dG*dG*dC*dA*dG*dG) [compound 10368]	84.5	81.0	–	–
10369 (antisense dT*dG*dG*dT*dA*dT*dG*dG*dG*dC*dT*dT*dT*dA*dC*dT*dC*dT*dT*dT) [compound 10369]	81.5	71.3	–	–
323686 (antisense e[5mC]*eT*e[5mC]*eT*e[5mC]*d[5mC]*dA*dT*dT*dG*dT*dG*dT*dT*dG*eG*eT*eT*e[5mC]*e[5mC]) [compound 323686]	–	–	53	–
323687 (antisense e[5mC]*eT*eT*e[5mC]*e[5mC]*d[5mC]*dT*d[5mC]*dT*d[5mC]*d[5mC]*dA*dT*dT*dG*eT*eG*eT*eT*eG) [compound 323687]	–	–	19	–
323688 (antisense eT*eG*eG*eT*e[5mC]*dT*dG*dT*dT*d[5mC]*dA*d[5mC]*dT*d[5mC]*dT*e[5mC]*eT*eT*e[5mC]*e[5mC]) [compound 323688]	–	–	58	–
323689 (antisense eT*eT*e[5mC]*eA*eT*d[5mC]*dA*dG*dA*dT*d[5mC]*dT*dT*dT*d[5mC]*eA*eG*eG*eT*eA) [compound 323689]	–	–	43	–
323690 (antisense eA*eT*e[5mC]*eA*e[5mC]*dT*dT*dT*dT*dG*dT*d[5mC]*dG*d[5mC]*dA*eT*eG*eA*eA*eG) [compound 323690]	–	–	82	–
323691 (antisense eG*e[5mC]*eT*eT*eT*dA*d[5mC]*dT*d[5mC]*dT*dT*dT*dA*dA*dT*eT*eA*eA*eA*eA) [compound 323691]	–	–	40	–
323692 (antisense eG*eT*eA*eT*eG*dG*dG*d[5mC]*dT*dT*dT*dA*d[5mC]*dT*d[5mC]*eT*eT*eT*eA*eA) [compound 323692]	–	–	57	–
323693 (antisense eA*eT*eA*e[5mC]*eT*dT*dG*dT*dA*dT*dG*dG*dG*d[5mC]*dT*eT*eT*eA*e[5mC]*eT) [compound 323693]	–	–	62	–
323694 (antisense eA*eA*eT*eG*eA*dA*dT*dA*d[5mC]*dT*dT*dG*dT*dA*dT*eG*eG*eG*e[5mC]*eT) [compound 323694]	–	–	71	–
ISIS 10715: scrambled control of # 9133; SEQ ID NO: 76 (antisense dG*dA*dT*dT*dT*dA*dA*dC*dA*dT*dT*dT*dG*dG*dC*dG*dC*dC*dC*dA) [reference compound]	–	–	–	inhibitory activity on B7-2 cell surface expression [1]: no inhibitory activity
ISIS 10716: scrambled # 9136; SEQ ID NO: 77 (antisense dA*dA*dA*dG*dT*dT*dA*dC*dA*dA*dC*dA*dT*dT*dA*dT*dA*dT*dC*dT) [reference compound]	–	–	–	inhibitory activity on B7-2 cell surface expression [1]: no inhibitory activity
ISIS 10991: # 10373 deletion derivative, 10-mer, 0015-0024; SEQ ID NO: 85 (antisense dC*dT*dC*dC*dC*dC*dG*dT*dA*dC)	–	–	–	activity in the B7-2 protein expression assay [1]: little or no activity
ISIS 10992: # 10373 deletion derivative, 11-mer, 0015-0025; SEQ ID NO: 86 (antisense dG*dC*dT*dC*dC*dC*dC*dG*dT*dA*dC)	–	–	–	activity in the B7-2 protein expression assay [1]: little or no activity
ISIS 10993: # 10373 deletion derivative, 12-mer, 0015-0026; SEQ ID NO: 87 (antisense dA*dG*dC*dT*dC*dC*dC*dC*dG*dT*dA*dC)	–	–	–	activity in the B7-2 protein expression assay [1]: little or no activity
ISIS 10994: # 10373 deletion derivative, 13-mer, 0015-0027; SEQ ID NO: 88 (antisense dG*dA*dG*dC*dT*dC*dC*dC*dC*dG*dT*dA*dC)	–	–	–	activity in the B7-2 protein expression assay [1]: little or no activity
ISIS 10995: # 10373 deletion derivative, 14-mer, 0015-0028; SEQ ID NO: 89 (antisense dC*dG*dA*dG*dC*dT*dC*dC*dC*dC*dG*dT*dA*dC)	–	–	–	activity in the B7-2 protein expression assay [1]: little or no activity
ISIS 11539: fully 2′MO # 10996; SEQ ID NO: 90 (antisense GCGAGCTCCCCGTAC; all 2'-O-methyl, all phosphorothioate, T or U not given here)	–	–	–	B7-2 expression relative to untreated cells [1]: not active at all
